Data on six compounds can be found in US7947854B2, “Bis-cationic compounds and use thereof” (The University of Sydney, priority 2003, dated 2011).

The subject of test [1] is Candida albicans ATCC 10231. As to the kind of experiment: Antifungal susceptibility testing, microdilution MIC. The test is classed as cell-based. As to the method: (§1) Antifungal susceptibility testing. The antifingal activity of the compounds was measured by a standard microdilution method. […] The fungal strains tested included Cryptococcus neoformans H99, Cryptococcus neoformans ATCC 90112 and Candida albicans ATCC 10231. All tests were performed in duplicate.
(§2) A range of cationic compounds were assayed for antifungal activity in a standardised serial dilution sensitivity test against C. neoformans ([…]) and C. Albicans (ATCC 10231).
Background: In broth dilution the organism is exposed to a series of concentrations in liquid medium.

Test [2] deals with Cryptococcus neoformans ATCC 90112. Described as above. The test is classed as cell-based. Here is the method:
as §1, §2

The test system of test [3] is secreted phospholipase B (LPL/LPTA activities). As to the kind of experiment: Radiometric assay, secreted LPL and LPTA activities (Lyso assay). The test is classed as biochemical, Cryptococcus neoformans H99. As to the method:
(§3) Fungal isolates and media. […] Isolate H99 was kindly supplied by Dr. Gary Cox (Duke University Medical Center, Durham, N.C., USA), and subcultured onto Sabouraud dextrose agar (SDA) at 30° C.
(§4) Preparation of supernatants containing secreted phospholipase activities. Isolate H99 was grown to confluence on SDA in 16 cm diameter Petri dishes for 72 h at 30° C. in air. Cells scraped from 10-20 dishes were washed sequentially with isotonic saline and imidazole buffer (10 mM imidazole, 2 mM CaCl2, 2 mM Mg Cl2, 56 mM D-Glucose, made up in isotonic saline, pH 5.5), resuspended in a volume of this buffer of about 10% of the cell volume, and incubated for 24 h at 37° C. The cell-free supernatant was separated by centrifugation as previously described and stored at −70° C.
Secreted LPL and LPTA activities were measured simultaneously in a reaction mixture containing 1-[^14C]palmitoyl lyso-PC (25,000 dpm) and carrier lyso-PC (final concentration 200 μM) in assay buffer. The reaction time was […] with 1 μg of total protein and LPL activity was measured by the rate of loss of 1-[^14C]palmitoyl lyso-PC with release of radiolabelled fatty acids. LPTA activity was estimated from the rate of formation of radiolabelled PC.
(§5) All reactions were terminated by adding 0.5 mL of chloroform:methanol (2:1 v/v). The reaction products were extracted by the method as disclosed in Bligh, E. C. and W. J. Dyer. 1959 ‘A rapid method of total lipid extraction and purification.’ Can. J. Biochem. Physiol. 37:911-917, separated by TLC and quantified as previously described. In the case of PLC activity, the TLC plates were developed in petroleum ether (BP 60-80° C.): diethyl ether: acetic acid (90:15:1, v/v/v) instead of chloroform:methanol:water (65:25:4, v/v/v).
(§6) Preparation of inhibitors and use in assays. The following compounds were tested (for structures, see FIG. 2): compound 1, 1,12-bis(tributylphosphonium)dodecane dibromide (Fluka AG, Buchs, Switzerland); compound 2, 1,10-bis(tributylammonium)-decane dibromide; compound 3, 1,12-bis(tributylammonium)do-decane dibromide (both synthesised in-house); compound 4, 1,10-bis(trimethylammonium)decane dibromide [“decamethonium”] (Sigma, St. Louis Mo., USA). All compounds were prepared as stock solutions of 700 μM in assay buffer containing 5 mM EDTA, which was then diluted serially with buffer to obtain solutions of 70, 7, 0.7 and 0.07 μM. In each assay, 45 μL of these solutions was used, and the final volume of 125 μL was made up of substrate, enzyme and buffer. The radiometric assay was carried out as above. Inhibition was calculated as the percent of substrates (DPPC or Lyso-PC) remaining in the case of PLB and LPL activities, or of DPPC produced, in the case of the LPTA activity. The amounts converted, or produced, in the inhibitor-free control were normalised to 100%, and the inhibition calculated against it. All assays were done in triplicate.
(§7) Under these conditions only PLB, LPL and LPTA activities (both secreted and cell-associated) were measured. Initially, compounds deemed to be potential inhibitors were assayed at 25 and 250 μM. Those showing some inhibition were then also assayed at 2.5 and 0.25 μM.

Test [4] deals with secreted phospholipase B (PLB activity). Briefly: Radiometric assay, secreted PLB activity. The test is classed as biochemical, Cryptococcus neoformans H99. As to the method: as §3, §4
Radiometric assay method for phospholipases. Enzyme activities were measured as described previously in a final volume of 125 μL at 37° C. For the determination of secreted PLB activity, carrier dipalmitoyl phosphatidylcholine (DPPC, final concentration 800 μM) and 1,2-di[1-^14C] palmitoyl phosphatidylcholine (20,000 dpm) were dried under nitrogen and suspended in 125 mM imidazole acetate buffer (assay buffer, pH 4.0) by sonication using a Branson 450 sonifier. The reaction time was 22 min, using 1 μg total protein and PLB activity was determined by the rate of decrease of the radiolabelled PC substrate, with appearance of the label in free fatty acid. This assay also simultaneously allows for the determination of phospholipase A, C and D activities. These activities were measured by the appearance of radiolabel from PC in Lyso PC, diacylglycerol and phosphatidic acid, respectively.
as §5, §6, §7

Where [5] appears, read: Candida albicans, ATCC10231, Table 7, read-out: MIC (μM) C. alb. (10231).
[6] abbreviates: Cryptococcus neoformans, ATCC90112, Table 7, read-out: MIC (μM) Crypto. (ATCC 90112).
[7] abbreviates: Table 7, read-out: MIC (μM) C. alb. (10231).
The mark [8] stands for this setting: Table 7, read-out: MIC (μM) Crypto. (ATCC 90112).

Each structure is given as a SMILES string. Where two headings read alike, the source gives them in different places.

Take `C(CCCCCC[N+]12CCC(CC1)CC2)CCCCC[N+]12CCC(CC1)CC2` [1,12-Bis-(quinuclidinium)dodecane dibromide]: the MIC in test [1] (setting [5]) is not below 350 µM; in test [2] (setting [6]) it was 350 µM. Moreover, the “Lyso assay (% inhibition) LPL” value in test [3] (0.25 μM), in test [3] (2.5 μM), in test [3] (25 μM) and in test [3] (250 μM) was 250 μM = 0% 25 μM = 0% 2.5 μM = 0% 0.25 μM = 0% each time. The “Lyso assay (% inhibition) LPTA” value in test [3] (0.25 μM), in test [3] (2.5 μM), in test [3] (25 μM) and in test [3] (250 μM) was 250 μM = 0% 25 μM = 0% 2.5 μM = 0% 0.25 μM = 0% in each case. Moreover, the “PLB assay (% inhibition)” value in test [4] (0.25 μM) came out at 0%; in test [4] (2.5 μM), 0%; in test [4] (25 μM), 0%; in test [4] (250 μM) it was 5%.
As for `CC(C)C[N+](CCCCCCCCCCCC[N+](CC(C)C)(CC(C)C)CC(C)C)(CC(C)C)CC(C)C.[Br-].[Br-]` [1,12-Bis-(triisobutylammonium)dodecane dibromide], the “MIC (μM) C. alb. (10231)” value in test [1] (Table 7) is reported as “≧350 μM”. For the same compound, the “MIC (μM) Crypto. (ATCC 90112)” value in test [2] (Table 7) is “≧350 μM”. Also, the “Lyso assay (% inhibition) LPL” value in test [3] (25 μM) and in test [3] (250 μM) was 250 μM = 0% 25 μM = 0% 2.5 μM = n.d. 0.25 μM = n.d in each case. The “Lyso assay (% inhibition) LPTA” value in test [3] (25 μM) was 4%; in test [3] (250 μM), 5%. The “PLB assay (% inhibition)” value in test [4] (25 μM) and in test [4] (250 μM) was 250 μM = 0% 25 μM = 0% 2.5 μM = n.d. 0.25 μM = n.d each time.
On to `CC(C)CC[N+](CCCCCCCCCCCC[N+](CCC(C)C)(CCC(C)C)CCC(C)C)(CCC(C)C)CCC(C)C.[Cl-].[Cl-]` [1,12-Bis-(triisopentylammonium)dodecane dichloride], for which the MIC in test [1] (setting [7]) was found to be 2.2 µM; in test [2] (setting [8]) it was 4.4 µM. Also, the “Lyso assay (% inhibition) LPL” value in test [3] (25 μM) and in test [3] (250 μM) was 250 μM = 11% 25 μM = 11% 2.5 μM = n.d. 0.25 μM = n.d each time. In addition, the “Lyso assay (% inhibition) LPTA” value stood at 0% in test [3] (25 μM) and 6% in test [3] (250 μM). The “PLB assay (% inhibition)” value amounted to 0% in test [4] (0.25 μM); 9% in test [4] (2.5 μM); 38% in test [4] (6.7 μM); 56% in test [4] (12.5 μM); 68% in test [4] (25 μM); 63% in test [4] (250 μM).
Take `CCCCC[N+](CCCCC)(CCCCC)CCCCCCCCCCCC[N+](CCCCC)(CCCCC)CCCCC.[Br-].[Br-]` [1,12-Bis-(tripentylammonium)dodecane dibromide]: the minimal inhibitory concentration (MIC) in test [1] (setting [7]) and in test [2] (setting [8]) was 5.5 µM in each case. Also, the “Lyso assay (% inhibition) LPL” value in test [3] (25 μM) and in test [3] (250 μM) was 250 μM = 10% 25 μM = 10% 2.5 μM = n.d. 0.25 μM = n.d each time. For the same compound, the “Lyso assay (% inhibition) LPTA” value turned out to be 0% in test [3] (25 μM) and 2.4% in test [3] (250 μM). Also, the “PLB assay (% inhibition)” value in test [4] (0.25 μM) is given as 0%; in test [4] (2.5 μM), 12%; in test [4] (25 μM) it was 73%; in test [4] (250 μM), 63%.
On to `CCC[N+](CCC)(CCC)CCCCCCCCCCCC[N+](CCC)(CCC)CCC` [1,12-Bis-(tripropylammonium)dodecane dibromide], for which the MIC was found to be 10 µM in test [1] (setting [5]) and 5.5 µM in test [2] (setting [6]). For the same compound, the “Lyso assay (% inhibition) LPL” value in test [3] (0.25 μM) came to 0%; in test [3] (2.5 μM), 0%; in test [3] (25 μM) it was 5%; in test [3] (250 μM), 8%. Further, the “Lyso assay (% inhibition) LPTA” value in test [3] (0.25 μM) is recorded as 0%; in test [3] (2.5 μM), 0%; in test [3] (25 μM), 20%; in test [3] (250 μM), 10%. In addition, the “PLB assay (% inhibition)” value in test [4] (0.25 μM) came to 5%; in test [4] (2.5 μM), 6%; in test [4] (6.7 μM), 42%; in test [4] (12.5 μM) it was 68%; in test [4] (25 μM), 71%; in test [4] (250 μM), 80%.
As to `C[N+]1(CCCCCCCCCCCC[N+]2(C)CCCC2)CCCC1` [C12-bis-N-methyl-pyro. dibromide, 1,12-Bis-(1-methylpyrrolidinium)dodecane dibromide], the MIC in test [1] (Candida albicans, ATCC10231, read-out: MIC (μM) C. alb. (10231)) was determined as 175 µM; in test [2] (Cryptococcus neoformans, ATCC90112, read-out: MIC (μM) Crypto. (ATCC 90112)) it was 175 µM. For the same compound, the “Lyso assay (% inhibition) LPL” value in test [3] (25 μM) and in test [3] (250 μM) was 250 μM = 0% 25 μM = 0% 2.5 μM = n.d. 0.25 μM = n.d throughout. Besides, the “Lyso assay (% inhibition) LPTA” value in test [3] (25 μM) and in test [3] (250 μM) was 250 μM = 0% 25 μM = 0% 2.5 μM = n.d. 0.25 μM = n.d each time. The results for the “PLB assay (% inhibition)” value in test [4] (25 μM) and in test [4] (250 μM) were 0% and 9%, respectively.

One may read the MIC as the lowest concentration found to suppress growth.
